Results filed as inconclusive are left out. Activity calls are given as the source filed them.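 How the source made its calls: active means Normal-ribosome green reporter loss at least double humanized-ribosome red reporter loss, with overall culture growth inhibition under a set limit; inconclusive means no clear call, values can overlap the other calls; inactive means the rest.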
Key:
[1] = system: E. coli humanized H38 RFP strain growth, mixed culture, 24 h; experiment: E. coli growth inhibition, wild-type GFP versus H38 humanized RFP strain – H38 mutant RFP vs wild-type GFP, cherry-pick, dose response (AID 977630)
[2] = system: E. coli wild-type GFP growth, mixed culture, 24 h; experiment: as above
[3] = E. coli mixed culture total OD600 growth, 24 h

| Compound | AC50 [1] | AC50 [2] | AC50 [2, 3] |
| --- | --- | --- | --- |
| COc1cc(NC(=O)C(c2ccccc2)c2ccccc2)c(C(=O)O)cc1OC | 22.3 µM | > 100 µM (inactive) |  |
| COC(=O)c1nc(-c2ccc(C)cc2)[nH]c1C(C)(C)C | > 100 µM |  |  |
| CCOC(=O)[C@]12Cc3ccccc3[C@H]1N(C)C(=O)c1cc(OC)ccc12 | 48.7 µM | > 100 µM (inactive) | 34.2 µM |
| COc1ccc(NS(=O)(=O)c2ccc(Cl)c(NC(=O)c3ccccc3F)c2)cc1 | > 100 µM | > 100 µM (inactive) |  |
| CS(=O)(=O)N1CC2CCCN2c2ccc(C(F)(F)F)cc21 (stereo not drawn) | > 100 µM | > 100 µM (inactive) | > 100 µM |
| Cc1cc(SCC(=O)OCC(=O)NCC2CCCO2)c(C)cc1Br (stereo not drawn) | > 100 µM | > 100 µM (inactive) |  |
| COc1ccc(OC2C(=O)N(Cc3ccc4c(c3)OCO4)C2c2cccs2)cc1 (stereo not drawn) | 11.5 µM | > 100 µM (inactive) |  |
| Cc1ccccc1NS(=O)(=O)c1cc(C(=O)NCCC2=CCCCC2)ccc1C | > 100 µM |  | > 100 µM |
| COc1cc(OC)cc(C(=O)N[C@H](C(=O)OCC(=O)Nc2ccc(F)c(F)c2F)C(C)C)c1 | > 100 µM | > 100 µM (inactive) |  |
| Cc1ccccc1-c1nc(CS(=O)(=O)CC(=O)N2CCCCC2)c(C)o1 | > 100 µM |  | 45.5 µM |
| CN(c1ccc(C(=O)NCc2cccs2)cc1)S(=O)(=O)c1ccccc1 | > 100 µM |  |  |
| COc1ccc(-c2csc(NC(=O)c3ccccc3S(C)(=O)=O)n2)cc1 |  |  | > 100 µM |
| Cc1ccc(S(=O)(=O)N2CCOCC2)cc1NC(=O)COc1ccc(-c2nnco2)cc1 |  | > 100 µM (inactive) |  |
| Cc1ccc(Cl)cc1N1CCN(C(=O)c2ccc3nc[nH]c3c2)CC1 |  | > 100 µM (inactive) |  |
| CC1CCCN(c2ccc(C(=O)NCCc3ccccc3)cn2)C1 (stereo not drawn) |  | > 100 µM (inactive) | > 100 µM |
| O=C(CCNc1cccc(Cl)c1)c1cccs1 |  | > 100 µM (inactive) |  |
| Nc1[nH]c(C(=O)c2ccccc2)c(-c2ccc(Cl)cc2)c1C(=O)NCCc1c[nH]c2ccccc12 |  | > 100 µM (inactive) | > 100 µM |
| CCCCOc1ccc(-c2nnn(CCC(=O)N3CCOCC3)n2)cc1 |  |  | > 100 µM |
| Nc1nc(Nc2ccccc2F)nc(N2CCOCC2)c1[N+](=O)[O-] |  | > 100 µM (inactive) |  |
| Cc1cccc(NC(=O)c2c(C)nn(-c3ccccc3)c2Cl)c1 |  |  | 41.6 µM |
| C[C@]12CCC(=O)C[C@H]1CC[C@@H]1[C@@H]2CC[C@]2(C)C(=O)CC[C@@H]12 |  | > 100 µM (inactive) |  |
| COC(=O)c1ccsc1NC(=O)c1cccc(OC)c1 |  |  | > 100 µM |
| CC(=O)OC(COc1cccc(C)c1)Cn1cnc2ccccc21 (stereo not drawn) |  | > 100 µM (inactive) | > 100 µM |

| Compound | AC50 [1] | AC50 [2] | AC50 [2, 3] |
| --- | --- | --- | --- |
| O=C(Cc1c(Cl)cccc1Cl)Nc1cccc(S(=O)(=O)N2CCOCC2)c1 |  | > 100 µM (inactive) |  |
| O=c1[nH]c(C2CCCN(S(=O)(=O)c3ccccc3Cl)C2)nc2c1nnn2Cc1ccc2c(c1)OCCO2 (stereo not drawn) |  | > 100 µM (inactive) | > 100 µM |
| CCNC(=O)C1(C)CCCN(Cc2cccc3ccccc23)C1 (stereo not drawn) |  | > 100 µM (inactive) |  |
| Nc1ccccc1Nc1ccc([N+](=O)[O-])cc1[N+](=O)[O-] |  | > 100 µM (inactive) |  |
| Cc1cc(C)n2nc(C(=O)Nc3cccc(S(=O)(=O)N(C)c4ccccc4)c3)nc2n1 |  | > 100 µM (inactive) |  |
| Cc1cc(C(=O)COC(=O)CNC(=O)c2ccccc2)c(C)n1CC1CCCO1 (stereo not drawn) |  | > 100 µM (inactive) |  |
| O=C(Nc1ccc(C(=O)Nc2ccccc2Cl)cc1)c1cccnc1 |  | > 100 µM (inactive) |  |
| COc1ccc(-c2cc(C(=O)O)nc3ccc4ccccc4c23)cc1OC | > 100 µM |  |  |
| Cc1ccc(-c2cc(-c3ccc(C)cc3)[n+](-c3ccc(C(=O)[O-])cc3)c(-c3ccc(C)cc3)c2)cc1 |  | > 100 µM (inactive) |  |
| COC(=O)c1ccc(OS(=O)(=O)c2ccc(NC(C)=O)cc2)cc1 |  | > 100 µM (inactive) | > 100 µM |
| Cn1cc(CN2CCCC(C(=O)c3cccs3)C2)c(-c2cccc(Cl)c2)n1 (stereo not drawn) |  | > 100 µM (inactive) |  |
| CCOc1ccc2nc(NC(=O)CSc3nc(SC)ns3)sc2c1 |  | > 100 µM (inactive) | > 100 µM |
| COc1ccc2nc(SCC(=O)Nc3ccccc3)[nH]c2c1 |  | > 100 µM (inactive) | > 100 µM |
| COCC#Cc1ccc2c(c1)O[C@@H](CN(C)S(=O)(=O)c1cccc(F)c1)[C@@H](C)CN([C@H](C)CO)S2(=O)=O |  |  | > 100 µM |
| COc1cccc(NC(=O)C2CCC(CNS(=O)(=O)c3cccc4cccnc34)CC2)c1 (stereo not drawn) | > 100 µM |  |  |
| Cc1cccc(Oc2ccc(NC(=O)c3ccccc3C(=O)O)cc2)c1 |  | > 100 µM (inactive) |  |
| C[C@@H]1CCCCO[C@H](CN(C)C(=O)CCCN(C)C)[C@H](C)CN([C@@H](C)CO)C(=O)c2cc(NC(=O)Nc3cccc4ccccc34)ccc2O1 |  |  | > 100 µM |
| Oc1c(Br)cc(Br)cc1Br |  | > 100 µM (inactive) |  |
| COc1ccc2[nH]c3c(=O)n(CCCCC(=O)NCCC(C)C)c(=S)[nH]c3c2c1 |  | 2.42 µM | > 100 µM |
| O=C(O)c1ccc2c(c1)N(Cc1ccccc1)C(=O)c1ccccc1S2 |  | > 100 µM (inactive) | > 100 µM |
| CCCCn1c(NS(=O)(=O)c2ccc(C)cc2)c(C(=O)OCC)c2nc3ccccc3nc21 |  | > 100 µM (inactive) | > 100 µM |
| CCOc1cccc(-c2cc(-c3n[nH]c(=S)n3CC)c3ccccc3n2)c1 |  | > 100 µM (inactive) |  |
| COc1cccc(CC(=O)OC(C)C(=O)NCc2ccc3c(c2)OCO3)c1 (stereo not drawn) |  | > 100 µM (inactive) |  |

| Compound | AC50 [1] | AC50 [2] | AC50 [2, 3] |
| --- | --- | --- | --- |
| CCc1cc(C(=O)N2CCCC(C(=O)c3cccc4ccccc34)C2)n(C)n1 (stereo not drawn) |  | > 100 µM (inactive) |  |
| COc1cc(OC)cc(C(=O)Nc2ccc(C(=O)Nc3ccccc3OC)cc2)c1 |  | > 100 µM (inactive) |  |
| O=C(c1ccc(N2CCCCC2)c([N+](=O)[O-])c1)N1CCN(c2ccccn2)CC1 |  | > 100 µM (inactive) | > 100 µM |
| C=CCN(CC=C)C(=O)c1ccc2nc(Cc3ccc(OC)c(OC)c3)oc2c1 |  | > 100 µM (inactive) |  |
| Cc1cccc(C(=O)NCC(=O)N2CC=C(c3ccccc3)CC2)c1 |  | > 100 µM (inactive) |  |
| O=c1[nH]c(C2CCN(S(=O)(=O)c3ccc4c(c3)OCCO4)CC2)nc2c1nnn2Cc1ccccc1F |  | > 100 µM (inactive) | > 100 µM |
| O=[N+]([O-])c1ccccc1Oc1ccc(Cl)c2cccnc12 |  | > 100 µM (inactive) |  |
| CN(C)S(=O)(=O)c1ccc(Cl)c(C(=O)OCC(=O)NC(=O)c2cccn2C)c1 |  | > 100 µM (inactive) |  |
| Cc1[nH]nc2c1C(c1ccc(F)cc1)N(Cc1ccccc1)C2=O (stereo not drawn) |  | > 100 µM (inactive) | > 100 µM |
| O=C(NCCCCc1ccccc1)c1cccc(NC(=O)C2CCCCC2)c1 |  | > 100 µM (inactive) | > 100 µM |
| CN(c1ccccc1)S(=O)(=O)c1cccc(NC(=O)CCNC(=O)c2ccc([N+](=O)[O-])cc2)c1 |  | > 100 µM (inactive) | > 100 µM |
| Cc1cccc(NC(=O)c2sc3nc(-c4ccccc4)cn3c2C)n1 |  |  | > 100 µM |
| O=c1c2cc(Br)ccc2[nH]c(=S)n1Cc1ccccc1 |  | > 100 µM (inactive) |  |
| COc1cccc(CNC(=O)CCSCc2ccccc2F)c1 |  | > 100 µM (inactive) | > 100 µM |
| COc1ccc(NC(=O)CN(c2ccccc2OC)S(=O)(=O)c2cccs2)cc1Cl |  | > 100 µM (inactive) |  |
| Brc1ccc(Nc2ncnc3[nH]ncc23)cc1 |  | > 100 µM (inactive) |  |
| CC(=O)c1c(C)nn(CC(O)COc2ccc3c(c2)CCC3)c1C (stereo not drawn) |  | > 100 µM (inactive) | > 100 µM |
| CSc1nnnn1-c1ccc(Cl)cc1 | > 100 µM |  |  |
| CSc1ccc(CN(C)CC(=O)NC(C)c2ccccc2)cc1 (stereo not drawn) |  |  | > 100 µM |
| Cc1ccccc1Nc1c(-c2cccnc2)nc2ccc(Br)cn12 |  |  | > 100 µM |
| Nc1ccc(C(=O)Nc2ccc3nc(-c4ccncc4)[nH]c3c2)cc1 |  |  | > 100 µM |
| CCOc1ccc2nc(SCC(=O)Nc3nonc3C)[nH]c2c1 |  | > 100 µM (inactive) | > 100 µM |
| CCN(CC)CCNC(=O)c1cc2cc3ccc(OC)cc3nc2o1 |  | > 100 µM (inactive) |  |

| Compound | AC50 [1] | AC50 [2] | AC50 [2, 3] |
| --- | --- | --- | --- |
| CC(C)(C)c1ccc(-c2noc(CCC(=O)NCc3ccco3)n2)cc1 |  | > 100 µM (inactive) |  |
| Fc1ccc(-c2nc3ccc(Cl)cn3c2Cc2cccc(Cl)c2)cc1 |  |  | > 100 µM |
| Cc1cccc(NC(=O)CN(C)S(=O)(=O)c2cccs2)c1 |  | > 100 µM (inactive) |  |
| O=C(NCCc1csc(-c2ccccc2)n1)c1ccccc1F |  | > 100 µM (inactive) |  |
| O=C(CCNC(=O)c1ccco1)Nc1cccc(Br)c1 |  | > 100 µM (inactive) |  |
| CCN(CC)S(=O)(=O)c1ccc(N2CCCC2)c(NC(=O)c2ccccc2OC)c1 |  |  | > 100 µM |
| Fc1ccccc1C1CCN(Cc2nc(COc3ccccc3)no2)C1 (stereo not drawn) | > 100 µM |  |  |
| S=c1nc(-c2cc(Cl)cc(Cl)c2)[nH][nH]1 |  | > 100 µM (inactive) |  |
| O=C(O)CC(CC(=O)Nc1ccc(Oc2ccccc2)cc1)c1ccccc1 (stereo not drawn) |  | > 100 µM (inactive) | > 100 µM |
| Cc1ccc(S(=O)(=O)Nc2ccccc2CNc2cccc(C)n2)cc1 |  | > 100 µM (inactive) |  |
| O=C(NCc1ccco1)c1ccc(COc2cccc3ccccc23)cc1 |  | > 100 µM (inactive) |  |
| O=C(COc1cc(F)ccc1[N+](=O)[O-])NCCCc1ccccc1 |  | > 100 µM (inactive) |  |
| Cc1cc(CNC(=O)c2cc(-c3ccccc3)nc3ccccc23)nn1C |  | > 100 µM (inactive) |  |
| COc1cc(CC(=O)Nc2nc(C)cs2)cc(OC)c1OC |  |  | > 100 µM |
| N#Cc1nc(-c2ccco2)oc1NCc1ccccc1Cl |  | > 100 µM (inactive) | 41.5 µM |
| CN(C)CCCN(C(=O)COc1ccc(Cl)cc1)c1nc2ccc(F)cc2s1 |  | > 100 µM (inactive) |  |
| Cc1ccc([N+](=O)[O-])c(OCCn2cnc3ccccc32)c1 | > 100 µM |  |  |
| Cc1ccc(S(=O)(=O)NCc2c(-c3ccccc3)noc2C)cc1 |  | > 100 µM (inactive) |  |
| Cc1cccc(C(=O)NCC(=O)NCCSc2ccc(Br)cc2)c1 |  | > 100 µM (inactive) |  |
| CC(=O)NCCOc1nc(N2CCCCC2)nc(N2CCCCC2)n1 |  | > 100 µM (inactive) | > 100 µM |
| Cc1nc(SCC(=O)Nc2ccc3c(c2)OCCO3)nc(C)c1C |  | > 100 µM (inactive) | > 100 µM |
